As usually defined, the melting point is the temperature, or range, at which the solid turns liquid. The IC50 is the midpoint of a concentration-inhibition curve.

In paper PMC10046946, “Novel Phthalic-Based Anticancer Tyrosine Kinase Inhibitors: Design, Synthesis and Biological Activity” (Current Issues in Molecular Biology, 2023) one finds melting point and IC50 data, which are given here for eight compounds.

Series [1] deals with K562 (chronic myelogenous leukemia). Kind of series: MTT cell proliferation assay, K562. The conditions noted are these: Homo sapiens, K562, 72 h of exposition, read-out: Anti-proliferative activity IC50, K562. The series is classed as cell-based. The protocol: (§1) Tests to determine the effects of the synthesized compounds on cell viability and the half-maximal inhibitory concentration (IC50) were performed using the MTT assay, as described in our prior work.
(§2) The target compounds 5, 6, 8–12, 14, 15, 17–22 and 24–26 were tested for antiproliferative activity against six cancer cell lines: K562 (chronic myelogenous leukemia), HL-60 (promyelocytic leukemia), MCF-7 (breast adenocarcinoma), HepG2 (human liver cancer), A549 (lung carcinoma) and OKP-GS (renal cell carcinoma). The RPMI 1788 cells (B lymphocyte, human) were used as a control to evaluate the system toxicity of the studied compounds to normal cells. Sorafenib, nilotinib and lapatinib were utilized as reference standards for comparison.
Background: Tetrazolium dyes change colour on reduction, which living cells bring about.

The subject of series [2] is HL-60 (promyelocytic leukemia). Put plainly: MTT cell proliferation assay, HL-60. Conditions: Homo sapiens, HL-60, 72 h of exposition, read-out: Anti-proliferative activity IC50, HL-60. The series is classed as cell-based. The protocol:
as §1, §2

Series [3] deals with MCF-7 (breast adenocarcinoma). Put plainly: MTT cell proliferation assay, MCF-7. The series is classed as cell-based. The conditions noted are these: Homo sapiens, MCF7, MCF-7, 72 h of exposition, read-out: Anti-proliferative activity IC50, MCF-7. The protocol: as §1, §2
Series [4] concerns HepG2 (human liver cancer). Put plainly: MTT cell proliferation assay, HepG2. In kind it is cell-based. The conditions noted are these: Homo sapiens, HepG2, 72 h, HepG2, 72 h of exposition, read-out: Anti-proliferative activity IC50, HepG2. As for the experimental part: as §1, §2
Series [5] has as its system A549 (lung carcinoma). Put plainly: MTT cell proliferation assay, A549. The series is classed as cell-based. The conditions noted are these: Homo sapiens, A549, 72 h of exposition, read-out: Anti-proliferative activity IC50, A549. The protocol:
as §1, §2

For series [6], the system named is OKP-GS (renal cell carcinoma). Put plainly: MTT cell proliferation assay, OKP-GS. In kind it is cell-based. The conditions noted are these: 72 h of exposition, read-out: Anti-proliferative activity IC50, OKP-GS. As for the experimental part: as §1, §2
For series [7], the system named is RPMI 1788 cells (B lymphocyte, human). Kind of series: MTT cell proliferation assay, normal RPMI 1788 cells. The series is classed as cell-based. Conditions: normal human lymphoblastoid cells RPMI 1788, 72 h of exposition, read-out: Anti-proliferative activity IC50, RPMI 1788. The protocol:
as §1, §2

For the compound `COc1ccc(C(=O)N2CCN(C(=O)c3cccc(C(=O)Nc4cccc(C(F)(F)F)c4)c3)CC2)cc1` [Compound 7, 3-(4-(4-Methoxybenzoyl)piperazine-1-carbonyl)-N-(3-(trifluoromethyl)phenyl)benzamide], the melting point is 72 to 74 °C.
Still for that read-out and setting: then `COc1ccc(C(=O)N2CCN(C(=O)c3cccc(C(=O)Nc4cc(-n5cnc(C)c5)cc(C(F)(F)F)c4)c3)CC2)cc1` [Compound 13, 3-(4-(4-Methoxybenzoyl)piperazine-1-carbonyl)-N-(3-(4-methyl-1H-imidazol-1-yl)-5-(trifluoromethyl)-phenyl)benzamide], with 144 to 146 °C.
In the case of `CNC(=O)c1cc(Oc2ccc(NC(=O)c3ccc(C(=O)Nc4cccc(C(F)(F)F)c4)cc3)cc2)ccn1` [Compound 18, N1-(4-((2-(methylcarbamoyl)pyridin-4-yl)oxy)phenyl)-N4-(3-(trifluoromethyl)phenyl)terephthalamide], the 50% inhibitory concentration (IC50) in series [1] is 26.9 µM; in series [2], above 50 µM; in series [3], above 50 µM; in series [4], 45.9 ± 1.83 µM; in series [5], above 50 µM; in series [6], 34.4 ± 2.52 µM. The half-maximal inhibitory concentration (IC50) in series [7] was determined as 46 ± 1.76 µM.
As to `O=C(Nc1cccc(C(F)(F)F)c1)c1ccc(C(=O)N2CCN(C(=O)c3ccccc3F)CC2)cc1` [Compound 20, 4-(4-(2-Fluorobenzoyl)piperazine-1-carbonyl)-N-(3-(trifluoromethyl)phenyl)benzamide], the melting point is 215 to 217 °C. The IC50 in series [1] was above 50 µM. Also, in series [2], the IC50 is above 50 µM. In addition, the IC50 in series [3] was above 50 µM. For the same compound, the IC50 in series [4] is above 50 µM. The IC50 in series [5] was above 50 µM. In addition, the IC50 in series [6] was above 50 µM. The IC50 in series [7] is above 50 µM.
As for `O=C(Nc1cccc(C(F)(F)F)c1)c1ccc(C(=O)N2CCN(C(=O)c3cccc(F)c3)CC2)cc1` [Compound 21, 4-(4-(3-Fluorobenzoyl)piperazine-1-carbonyl)-N-(3-(trifluoromethyl)phenyl)benzamide], the IC50 in series [1], in series [2], in series [3], in series [4], in series [5] and in series [6] was above 50 µM in each case. The IC50 in series [7] was above 50 µM.
Consider `Cc1cn(-c2cc(NC(=O)c3ccc(C(=O)Nc4cc(-n5cnc(C)c5)cc(C(F)(F)F)c4)cc3)cc(C(F)(F)F)c2)cn1` [Compound 22, N1,N4-bis(3-(4-methyl-1H-imidazol-1-yl)-5-(trifluoromethyl)phenyl)terephthalamide], for which the melting point was in the range of 295 to 296 °C. Also, in series [1], the 50% inhibitory concentration (IC50) is above 50 µM. In series [2], the IC50 is above 50 µM. Further, the IC50 in series [3] is above 50 µM. Further, the 50% inhibitory concentration (IC50) in series [4] is above 50 µM. In series [5], the IC50 is above 50 µM. Further, the half-maximal inhibitory concentration (IC50) in series [6] is above 50 µM. The concentration for half-maximal inhibition (IC50) in series [7] is above 50 µM.
With `CNC(=O)c1cc(Oc2ccc(NC(=O)c3ccc(C(=O)Nc4cc(-n5cnc(C)c5)cc(C(F)(F)F)c4)cc3)cc2)ccn1` [Compound 23, N1-(3-(4-methyl-1H-imidazol-1-yl)-5-(trifluoromethyl)phenyl)-N4-(4-((2-(methylcarbamoyl)pyridin-4-yl)oxy)phenyl)terephthalamide], the melting point lay within 299 to 300 °C.
Still for that read-out and setting: to `COc1ccc(C(=O)N2CCN(C(=O)c3ccc(C(=O)Nc4cc(-n5cnc(C)c5)cc(C(F)(F)F)c4)cc3)CC2)cc1` [Compound 25, 4-(4-(4-methoxybenzoyl)piperazine-1-carbonyl)-N-(3-(4-methyl-1H-imidazol-1-yl)-5-(trifluoromethyl)-phenyl)benzamide] belongs 212 to 214 °C.
